In US12458702B2 (NATIONAL TAIWAN UNIVERSITY, priority 2022, dated 2025):
Entries after “also recorded” stand apart in the source; their conditions may differ. Like-named read-outs stand apart in the source and are kept apart here.

Experiments:
NHDF = assay: Cytotoxicity by SRB assay in low GLUT-1 normal cell line NHDF; format: cell-based; details: Homo sapiens, low expression GLUT-1 normal cell line
Description: (§1) The fraction of cell survival was calculated as follows. Survival fraction=(OD treated−blank)/(OD control−blank). […] Each experiment was repeated three times.

[1] = test system: orthotopic CRC mice model; assay: Orthotopic AOM/DSS-induced CRC mice model, tumor area; format: in vivo, BALB/c mice; details: 5-FU series; for reduction of tumor volume: 50 mg/kg i.p. once every 3 days for 3 weeks
Description: Azoxymethane (AOM)-induced murine CRC model was applied to model human CRC. BALB/c mice (6 weeks of age, male) were intraperitoneally (i.p.) injected once every two weeks with AOM (10 mg/kg body weight) or the PBS vehicle. Seven days after each AOM injection, 2% dextran sulfate sodium (DSS) was given in the drinking water for four days, followed by 3 days of regular water. This cycle was repeated three times. The mice were randomly divided into eight groups (n=5), on day 60 after the first AOM treatment. […] Tumor volumes and body weights were recorded at sacrifice. The tumors were counted under a dissecting microscope, and the area covered by tumors was measured by imaging software (AxioVision LE 4.8.2.0).

[2] = test system: metastatic colorectal cancer; details: cited from earlier work
[3] = Body weight changes in the CRC mice model; format: in vivo, BALB/c mice
Description: Azoxymethane (AOM)-induced murine CRC model was applied to model human CRC. BALB/c mice (6 weeks of age, male) were intraperitoneally (i.p.) injected once every two weeks with AOM (10 mg/kg body weight) or the PBS vehicle. Seven days after each AOM injection, 2% dextran sulfate sodium (DSS) was given in the drinking water for four days, followed by 3 days of regular water. This cycle was repeated three times. The mice were randomly divided into eight groups (n=5), on day 60 after the first AOM treatment. […] Irinotecan (20 mg/kg), compound 31 (20 mg/kg), and irinotecan+compound 17 (20 mg/kg of irinotecan and 14 mg/kg of compound 17) were injected i.p. q.o.d for two weeks. […] Tumor volumes and body weights were recorded at sacrifice. The tumors were counted under a dissecting microscope, and the area covered by tumors was measured by imaging software (AxioVision LE 4.8.2.0).

[4] = Organ biodistribution in mice (UPLC-MS/MS); format: in vivo, BALB/c mice; details: 1 hour post i.p. injection; for organ distribution of 5-FU, in words: compound 7 50 mg/kg, free 5-FU 9.5 mg/kg
Description: (§2) In the following PK experiments, BALB/c mice (six weeks of age, male) were randomly divided into two groups (n=3). […] Blood samples were collected via femoral vein by syringes at 0, 1, 3, 5, 10, 15, 30, 45 min, 1, 2, 4, and 24 h after drug administration. 50 μL blood samples were collected into 100 μL extraction solvent (EtOAc/MeOH=1:1) and vortex for 30 sec. The supernatants were separated from the mixture by centrifugation at 10,000 rpm for 10 min and frozen at −30° C. pending UPLC-MS/MS analysis. For bio-distribution experiments, the entire dissected organs were placed into round-bottom after weighting, two-milliliter microcentrifuge tubes with 1 mL of extraction solvent (EtOAc/MeOH=1:1) and 7 mm stainless steel beads, then homogenized for 30 min. All of the containers were maintained at 4° C. throughout the process. The supernatants were separated from the mixture by centrifugation at 10,000 rpm for 10 min and frozen at −30° C. The 200 μL solvent from crude organ suspensions was removed by the dryer and then dissolved in 50 μL extraction solvent. All samples were stored at −30° C. and analyzed within 24 h. All of the samples were filtered through 0.22 μm PTFE membranes into 12×32 mm vials for UPLC-MS/MS analyses using 5-FU-^15N2 as a marker. Pharmacokinetic parameters were calculated using the WinNonlin Software (version 5.2, Pharsight, MO, USA.)
Analyses were performed on an ACQUITY UPLC I-Class/Xevo TQ-XS IVD System (Waters, Milford, MA, USA) from College of Public Health, National Taiwan University. The reverse phase BEH C18 (100 mm×2.1 mm, 1.7 μm, Waters) and VanGuard BEH C18 (5 mm×2.1 mm, 1.7 μm, Waters) precolumns were used to separate the analytes. All data were acquired by MassLynx V4.2. The mobile phase consisted of a 10 mM aqueous solution of ammonium acetate (A) and acetonitrile (B), set as follows: 0.00 min 98% A→1.00 min 98% A→3.00 min 10% A→4.50 min 10% A→4.60 min 98% A→6.00 min 98% A; at a rate of 0.5 mL/min for 6.00 min with 4 μL per injection. The column oven was maintained at 60° C. Multiple reaction monitoring (MRM) method was applied in quantification. […]

[5] = Plasma pharmacokinetics in mice (UPLC-MS/MS); format: in vivo, BALB/c mice; details: for T. of 5-FU: 5-FU measured in plasma
Description: as §2
Analyses were performed on an ACQUITY UPLC I-Class/Xevo TQ-XS IVD System (Waters, Milford, MA, USA) from College of Public Health, National Taiwan University. The reverse phase BEH C18 (100 mm×2.1 mm, 1.7 μm, Waters) and VanGuard BEH C18 (5 mm×2.1 mm, 1.7 μm, Waters) precolumns were used to separate the analytes. All data were acquired by MassLynx V4.2. The mobile phase consisted of a 10 mM aqueous solution of ammonium acetate (A) and acetonitrile (B), set as follows: 0.00 min 98% A→1.00 min 98% A→3.00 min 10% A→4.50 min 10% A→4.60 min 98% A→6.00 min 98% A; at a rate of 0.5 mL/min for 6.00 min with 4 μL per injection. The column oven was maintained at 60° C. Multiple reaction monitoring (MRM) method was applied in quantification. Mass spectrometer parameters were as follows: capillary voltage, 3.0 kV/3.0 kV, respectively, for positive/negative ion mode; ion source temperature, 120° C.; desolvation temperature, 450° C.; cone gas flow (N2), 50 L/h; desolvation gas flow (N2), 700 L/h; multiplier, 650 V; and collision gas pressure (Ar), 3−4×10^−3 mbar.

[6] = Human plasma stability (RP-HPLC); format: in vitro ADME; details: 95% human plasma, 37° C.
Description: To access human plasma stability, synthesized conjugates were prepared in 95% human plasma. […] The mixture was centrifuged at 13,000 rpm for 5 min. […] For compounds 30 and 31, they were dissolved in DMA and added GSH (11.2 mM or 11.2 μM) solution which was prepared in sodium acetate buffer (10 mM, pH 5.0) in the ratio of 50/40 (v/v, drug in DMA/GSH solution) for final GSH of 5 mM or 5 μM in pH 7.0, respectively. After incubation for the indicated time, samples were centrifuged to collect the clear supernatant and stored at −30° C. until analysis. RP-HPLC injections were carried out at the specified conditions, and the area of peak was integrated for further calculation.

HT-29 = assay: Cytotoxicity by SRB assay in HT-29 cells
Description: Cancer cell lines were obtained from ATCC unless otherwise noted. HT-29 and HCT-116 cells were cultured in Dulbecco's Modified Eagle Medium (DMEM, Thermo Fisher Scientific) with 10% fetal bovine serum (FBS, Thermo Fisher Scientific) and 1% antibiotic-antimycotic (Thermo Fisher Scientific).
Briefly, CRC cells were seeded at a density of 5×10^3 cells/well in 96-well microtiter plates (100 μL/well), separated into two groups with or without GSH. After incubation for 24 hours, the culture medium was replaced by fresh medium (100 μL). […] After incubation, 10% cold trichloroacetic acid was gently added to each well and incubated at 4° C. for 1 h. The medium was removed, carefully washed with water, and dried at room temperature. […] The optical density (O.D.) was measured at 510 nm with Multi-Mode Microplate Reader (SpectraMax Paradigm, Beckman Coulter, U.S.). The fraction of cell survival was calculated as follows. Survival fraction=(OD treated−blank)/(OD control−blank). […] Each experiment was repeated three times.

[7] = Stability and drug release in GSH (RP-HPLC); format: in vitro ADME
Description: […] After incubation for the indicated time, samples were centrifuged to collect the clear supernatant and stored at −30° C. until analysis. RP-HPLC injections were carried out at the specified conditions, and the area of peak was integrated for further calculation.

HCT-116 = assay: Cytotoxicity by SRB assay in HCT-116 cells; format: cell-based, human; details: Homo sapiens
Description: as §1

GLUT-1 = assay: 2-NBDG uptake assay in COS-7 cells that overexpress GLUT-1; format: cell-based; details: 50 μM and 100 μM
Description: COS-7 cells were seeded in 96-well culture plates and grown in low-glucose Dulbecco's Modified Eagle's medium supplemented with 10% fetal bovine serum and 2 mM L-glutamine for 24 h. After washing with Krebs Ringer bicarbonate buffer (KRB) (10 mM HEPES, 129 mM NaCl, 4.7 mM KCl, 2 mM CaCl2) and 1.2 mM MgSO4, 1.2 mM KH2PO4, 5 mM NaHCO3, pH 7.4), cells were incubated with the compounds to be tested in KRB containing 2-NBDG (200 μM) for 90 min at 37° C. in a 5% CO2 atmosphere, and then washed twice with KRB and lysed with lysis buffer (1% Nonidet P-40, 1% sodium deoxycholate, 40 mM KCl, and 20 mM Tris, pH 7.4). Finally, the lysates were transferred to black 96-well plates and fluorescence intensity was detected with a Multi-Mode Microplate Reader (SpectraMax Paradigm, Beckman Coulter, USA) using an excitation wavelength of 475 nm and an emission wavelength of 550 nm.

[8] = test system: CRC cell lines HCT-116 and HT-29; assay: Cytotoxicity against CRC cell lines, summary over both lines (SRB assay); format: cell-based, human
Description: as §1

[9] = Homo sapiens, HT-29, 48 h, read-out: IC50 HT-29 5 mM GSH
[10] = Homo sapiens, HT-29, 48 h, read-out: IC50 HT-29 w/o GSH
[11] = HCT-116, read-out: IC50 HCT-116 5 mM GSH, 48 h, 5 mM GSH
[12] = HCT-116, 48 h, w/o GSH, read-out: IC50 HCT-116 w/o GSH
[13] = Homo sapiens, HT-29, 48 h, read-out: IC50 HT-29
[14] = HCT-116, read-out: IC50 HCT-116 5 mM GSH, 72 h, prepared in DMA, 5 mM GSH
[15] = HCT-116, 48 h, prepared in DMSO, read-out: IC50 HCT-116
[16] = HCT-116, 72 h, prepared in DMA, w/o GSH, read-out: IC50 HCT-116 w/o GSH

Structure (SMILES)	IC50 (NHDF) [µM]	reduction of tumor volume [1] [%]	organ distribution of 5-FU, in words [4]	T. of 5-FU ([5]; i.p. injection) [min]	IC50 (HT-29; [9]) [µM]	IC50 (HT-29; [10]) [µM]	IC50 (HCT-116; [11]) [µM]	IC50 (HCT-116; [12]) [µM]	IC50 (HT-29; [13]) [µM]	IC50 (HCT-116; [14]) [µM]	IC50 (HCT-116; [15]) [µM]	IC50 (HCT-116; [16]) [µM]	other results
O=c1[nH]cc(F)c(=O)[nH]1 [5-FU, 5-fluorouracil, reference compound]	70.4 ± 7.2	33	distributed in stomach, spleen, and kidney	10	–	–	–	–	–	–	–	–	mean response rate of patients ([2]; 5-FU-based chemotherapy): approximately 23%; loss of body weight ([3]; free 5-FU 50 mg/kg i.p., after injection): about 10%
O=C(CCCSSCCOCCOCCOc1cc(O)c(C(=O)CCc2ccc(O)cc2)c(O)c1)OCn1cc(F)c(=O)[nH]c1=O [Compound 7, (5-Fluoro-2,4-dioxo-3,4-dihydropyrimidin-1(2H)-yl)methyl 4-((2-(2-(2-(3,5-dihydroxy-4-(3-(4-hydroxyphenyl)propanoyl)phenoxy)ethoxy)ethoxy)ethyl)disulfanyl)butanoate]	90 ± 2.6	67	detected mainly in colon, with small amounts in the kidney and stomach	45	3.8	19.6 ± 3.86	10.5	21.2 ± 1.69	–	–	–	–	tumor suppression (tumor area), in words ([1]; i.p. once every three days for three weeks, compound 7 and 5-FU 50 mg/kg, 5-FU 10 mg/kg + compound 17 30 mg/kg): better tumor suppression than 5-FU; half-life in human plasma [6]: 13 h; body weight change, in words ([3]; during treatment in CRC mice model): without body weight loss; also recorded: no significant change in the body weight; organ distribution of the compound, in words ([4]; 50 mg/kg): distributed in the stomach, colon, heart, and liver; plasma concentration of compound 7 after 5 min, in words ([5]; i.p. 50 mg/kg): below the detection limit; plasma concentration of 5-FU after 2 h, in words ([5]; i.p. injection): undetectable; time within which 5-FU released from compound 7 was detected in blood ([5]; i.v. 50 mg/kg): ≤ 2 h; plasma concentration of compound 7 after 30 min, in words ([5]; i.v. 50 mg/kg, lower detection limit=0.003 μg/mL, detectable again after 45 min and 4 h): undetectable; degradation after 48 h ([7]; 5 μM GSH, 48 h): 30%; cleavage percentage after 4 hours ([7]; 1 mM GSH): ~10%; cleavage percentage after 4 hours ([7]; 5 mM GSH): up to 60%; half-life at 2.5 mM ([7]; PBS containing 1 mM GSH, pH 7.4, half-life at 1 mM GSH, 1 mM GSH, PBS pH 7.4): 10.3 h; half-life at 2.5 mM ([7]; PBS containing GSH, pH 7.4, highly reductive environments, read-out: half-lives in highly reductive environments): < 5 h
O=C(CCc1ccc(O)cc1)c1c(O)cc(OCCOCCOCCS)cc1O[C@@H]1O[C@H](CO)[C@@H](O)C(O)[C@H]1O (stereo partly drawn) [Compound 16, 1-(2-Hydroxy-4-(2-(2-(2-mercaptoethoxy)ethoxy)ethoxy)-6-(((2S,3R,5S,6R)-3,4,5-trihydroxy-6-(hydroxymethyl)tetrahydro-2H-pyran-2-yl)oxy)phenyl)-3-(4-hydroxyphenyl)propan-1-one]	–	–	–	–	> 100	> 100	> 100	> 100	> 100	> 100	> 100	> 100	IC50 (HT-29; read-out: IC50 HT-29 5 mM GSH, 48 h, prepared in DMA, 5 mM GSH): > 100 µM; IC50 (HT-29; read-out: IC50 HT-29 w/o GSH, 48 h, prepared in DMA, w/o GSH): > 100 µM; inhibition of GLUT-1 activity (2-NBDG uptake), in words (GLUT-1): not able to inhibit GLUT-1; cytotoxicity against CRC cell lines, in words ([8]; HCT-116 and HT-29, with or without GSH): did not exhibit any inhibitory activity
CCc1c2c(nc3ccc(OC(=O)N4CCC(N5CCCCC5)CC4)cc13)-c1cc3c(c(=O)n1C2)COC(=O)[C@]3(O)CC [Irinotecan (39), irinotecan, reference compound]	–	–	–	–	6.44 ± 0.3	5.61 ± 0.11	–	–	8.51 ± 1.86	0.32 ± 0.02	3.69 ± 0.24	0.36 ± 0.01	response rate ([2]; phase II, single-agent, patients resistant to fluorouracil): about 27%; IC50 ([8]; Homo sapiens, HCT-116 and HT-29, over Tables 1 to 3, read-out: IC50 in CRC cells): 0.3 to 8.5 µM
